The values that follow come from PubChem BioAssay (NCI).

What all share (assay): NCI-60 cell line screen, 48 h
The test system of experiment [1] is A549 NSCLC.
Experiment [2] deals with BT-549 breast.
Experiment [3] relates to HCC-2998 colon.
Experiment [4] concerns NCI-H460 lung.
The subject of experiment [5] is OVCAR-3 ovarian.
The test system of experiment [6] is SR leukemia.
For experiment [7], the system named is T-47D breast.
Experiment [8] deals with U251 CNS.
Experiment [9] deals with UO-31 renal.
For experiment [10], the system named is OVCAR-5 ovarian.

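48-hour exposure; five concentrations; linearly interpolated endpoints. TGI: concentration producing complete growth inhibition.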

With `N#Cc1sc2c(c1OC(=O)c1ccco1)c(=O)n(-c1ccccc1)c(=S)n2-c1ccccc1`, the TGI in experiment [1] was more than 100 µM; in [2] it was more than 100 µM; in experiment [3] it was more than 100 µM; in experiment [4], more than 100 µM; in experiment [5] it was 75.5 µM; in [6], more than 10 µM. For the same molecule, the TGI in experiment [7] was found to be 77.5 µM; in experiment [8], 80.9 µM; in [9], 44.1 µM.
Regarding `COc1cc(C2c3cccc4cccc(c34)C3CCC(=O)N32)cc(OC)c1O` (stereo unspecified), the TGI in [1], in experiment [2], in experiment [4], in experiment [5], in experiment [10] and in [6] was more than 50 µM throughout. Besides, the TGI in experiment [7], in experiment [8] and in [9] was more than 50 µM throughout.
For the molecule `O=[N+]([O-])c1c(O)c2nonc2c2nn(-c3ccccc3)nc12`, the TGI in experiment [1], in experiment [2], in experiment [3], in [4], in [5] and in experiment [10] was more than 100 µM throughout. Also, the TGI in experiment [6], in experiment [7], in experiment [8] and in experiment [9] was more than 100 µM in each case.
As to `C=C(C)C1(Sc2ccc(OC)cc2)CC1`, the TGI in experiment [1] is more than 100 µM; in [2], 58 µM; in experiment [3], 34.2 µM; in [4], more than 100 µM; in experiment [5] it was 29.7 µM; in experiment [10], more than 100 µM. For the same molecule, the TGI in experiment [6] was 37.4 µM; in [7] it was more than 100 µM; in [8], more than 100 µM; in experiment [9] it was more than 100 µM.
On to `COc1cc2nc(-c3cccs3)nc(Nc3ccccc3C(=O)NN)c2cc1OC`, for which the TGI in experiment [1], in experiment [2], in experiment [3], in experiment [4], in experiment [5] and in experiment [10] was more than 100 µM in each case. Also, the TGI in [6], in [7], in experiment [8] and in experiment [9] was more than 100 µM each time.
Turning to `c1ccc2c(c1)nnn2C1CCCCO1` (stereo unspecified), the TGI in experiment [1], in experiment [2], in experiment [3], in experiment [4], in [5] and in [10] was more than 100 µM throughout. For the same molecule, the TGI in [6], in experiment [7], in experiment [8] and in experiment [9] was more than 100 µM in each case.
As for `COc1cc(C(c2ccccc2)N2C(=O)CC[C@H]2C(=O)O)cc(OC)c1OC` (stereo partly specified), the TGI in [1], in [2], in experiment [3], in experiment [4], in [5] and in experiment [10] was more than 100 µM each time. Further, the TGI in experiment [6], in experiment [7], in experiment [8] and in experiment [9] was more than 100 µM throughout.
In the case of `CCOC(=O)Cc1[nH]c(C(=O)c2ccccc2)cc1C(=O)c1ccccc1`, the TGI is 66.8 µM in experiment [1]; 38.7 µM in [2]; more than 100 µM in [3]; more than 100 µM in [4]; more than 100 µM in experiment [5]; more than 10 µM in experiment [10]. In addition, the TGI in experiment [6] is more than 100 µM; in [7], more than 100 µM; in experiment [8], more than 100 µM; in experiment [9] it was more than 10 µM.
For `O=c1c2cccnc2oc2c(Cl)cc(-c3nn[nH]n3)cc12`, the TGI in experiment [1], in experiment [3], in experiment [5], in experiment [10], in experiment [6] and in experiment [7] was more than 100 µM in each case. For the same molecule, the TGI in experiment [9] was more than 100 µM.
For the molecule `Cc1nc(N)c(N2CCN(S(=O)(=O)N(Cc3ccccc3)Cc3ccccc3)CC2)c(=O)[nH]1`, the TGI is more than 100 µM in experiment [1]; more than 100 µM in experiment [2]; more than 100 µM in experiment [3]; more than 100 µM in [4]; 73.8 µM in experiment [5]; 73.5 µM in [10]. Moreover, the TGI was more than 100 µM in experiment [6], 59.7 µM in [7], 36.8 µM in experiment [8] and more than 100 µM in [9].
Regarding `N#Cc1c(/C=C/c2ccccc2)c2c([nH]c1=S)CCCCC2`, the TGI in experiment [1], in experiment [3], in experiment [4], in experiment [5], in experiment [10] and in experiment [6] was more than 100 µM in each case. Moreover, the TGI in experiment [7], in [8] and in experiment [9] was more than 100 µM each time.
Turning to `COC(=O)N[C@@H]1C[C@H]2CC[C@]1(O[Si](C(C)C)(C(C)C)C(C)C)C(=O)C2`, the TGI in experiment [1] is 55.7 µM; in [4], more than 100 µM; in [5] it was 39.7 µM; in [10], 45.3 µM; in experiment [6] it was more than 100 µM; in experiment [7], more than 100 µM. Also, in experiment [9], the TGI came out at 32 µM.
Take `COc1cc2nc(-c3cccs3)nc(N3CCN(c4ccccc4)CC3)c2cc1OC`: the TGI in experiment [1], in experiment [2], in experiment [4], in experiment [5], in experiment [10] and in [6] was more than 100 µM throughout. Further, the TGI in [7], in experiment [8] and in experiment [9] was more than 100 µM in each case.
`CC1(C)CCCCCC(O)C(O)CCC(C)(C)C1=O` (stereo unspecified): the TGI in [1], in experiment [2], in experiment [4], in [5], in [10] and in experiment [6] was more than 100 µM in each case. The TGI in [7], in [8] and in experiment [9] was more than 100 µM throughout.
Take `NC1(c2cc3ccccc3s2)CCCCCC1`: the TGI in experiment [1] was 34.2 µM; in experiment [2], 32.6 µM; in [3], 4.49 µM; in [4], 28.6 µM; in [5] it was 29.2 µM; in experiment [10], 28.7 µM. Also, the TGI stood at 36.6 µM in [6], 29.1 µM in experiment [8] and 28.1 µM in [9].
Turning to `O=C(CSc1nc2ccc(I)cc2c(=O)n1Cc1ccccc1)Nc1ccccc1`, the TGI in [1] is more than 100 µM; in experiment [2], 54.6 µM; in experiment [5], 40.4 µM; in experiment [10] it was more than 100 µM; in experiment [6], 33.3 µM; in [7], more than 100 µM. Also, the values for the TGI in [8] and in experiment [9] were 48.8 µM and 1.55 µM, respectively.
On to `O=c1c(O)c(-c2ccccc2)oc2c(CP(=O)(O)O)cccc12`, for which the TGI in [1], in [2], in experiment [3], in experiment [4], in experiment [5] and in [10] was more than 100 µM each time. Besides, the TGI in experiment [6], in [7] and in experiment [8] was more than 100 µM in each case.
Turning to `CC1(C)CC(=O)c2c(N)n[nH]c2C1`, the TGI in [1], in [2], in experiment [3], in experiment [4], in [5] and in experiment [10] was more than 100 µM throughout. The TGI in experiment [6], in experiment [8] and in experiment [9] was more than 100 µM throughout.
Take `Cc1cn(C2CC(O)C(Cn3nncc3Cn3nc(Br)c(=O)[nH]c3=O)O2)c(=O)[nH]c1=O` (stereo unspecified): the TGI in experiment [1], in experiment [2], in [3], in [5], in experiment [10] and in experiment [6] was more than 100 µM each time. The TGI in [7], in experiment [8] and in [9] was more than 100 µM in each case.
Turning to `CCCN=C1NC(C)=CSC(Nc2ccccc2)=C1C#N`, the TGI in experiment [1], in [5], in experiment [10], in experiment [6], in [7] and in [8] was more than 100 µM throughout. This molecule gave a TGI in [9] of more than 100 µM.
As for `O/N=C1\C/C(=N\O)c2c(Br)sc(Br)c21`, the TGI is more than 100 µM in [1]; more than 100 µM in experiment [2]; 50.2 µM in experiment [3]; more than 100 µM in experiment [4]; more than 100 µM in experiment [5]; more than 100 µM in experiment [6]. Besides, the TGI in [7], in experiment [8] and in experiment [9] was more than 100 µM each time.
For `COc1ccc(NC(=O)CSC(=O)c2ccccc2)c(SCCSSCCSc2cc(OC)ccc2NC(=O)CSC(=O)c2ccccc2)c1`, the TGI in experiment [1], in experiment [2], in experiment [4], in [5], in experiment [10] and in [6] was more than 100 µM throughout. The TGI in experiment [7], in [8] and in [9] was more than 100 µM throughout.
As for `OCc1ccc2c(c1)CC1(Cc3ccccc3C1)C2`, the TGI is 71.2 µM in experiment [1]; 24.1 µM in [2]; more than 100 µM in experiment [3]; 44.6 µM in experiment [4]; 68.5 µM in experiment [5]; more than 100 µM in experiment [6]. In addition, the TGI is more than 100 µM in [7] and 29.1 µM in experiment [9].
For the molecule `CC1CN(c2cc3c(cc2F)c(=O)c(C(=O)O)cn3-c2ccc(N3CCN(C)CC3)cn2)CC(C)N1` (stereo unspecified), the TGI in [1], in [2], in experiment [4], in experiment [5], in [10] and in [6] was more than 100 µM each time. In addition, the TGI in [7], in [8] and in [9] was more than 100 µM in each case.
Turning to `CCCCCCc1ccc(CCCCCCCC(=O)O)o1`, the TGI in experiment [1], in experiment [2], in experiment [3], in experiment [4], in experiment [5] and in experiment [10] was more than 100 µM each time. Besides, the TGI in [6], in experiment [7] and in experiment [9] was more than 100 µM each time.
With `CCSC12OC3(CCCCCN3C1=O)C1C(=O)N(c3ccccc3)C(=O)C12` (stereo unspecified), the TGI in experiment [1], in experiment [2], in [4], in [5], in experiment [10] and in [6] was more than 100 µM in each case. Further, the TGI in experiment [7], in experiment [8] and in [9] was more than 100 µM in each case.
As for `CCN(CC)/N=C\c1c2ccccc2cc2ccccc12`, the TGI in experiment [1], in experiment [2], in experiment [4], in [10], in experiment [6] and in experiment [7] was more than 100 µM throughout. Further, the TGI in experiment [8] and in experiment [9] was more than 100 µM each time.
`CC(C)(C)OC(=O)N1C(=O)C2CCCC21` (stereo unspecified): the TGI in [1], in [2], in [3], in experiment [4], in experiment [5] and in [10] was more than 100 µM each time. For the same molecule, the TGI in experiment [6], in experiment [7] and in [8] was more than 100 µM each time.
Take `CCOP(=O)(OCC)C(Nc1ccc(Cl)cc1)c1ccc(F)cc1` (stereo unspecified): the TGI is more than 100 µM in experiment [1]; 59.1 µM in [3]; 48.2 µM in experiment [4]; more than 100 µM in experiment [5]; more than 100 µM in [6]; 40.8 µM in experiment [7]. For the same molecule, the TGI in experiment [8] amounted to 41.3 µM; in experiment [9], 59.9 µM.
For the molecule `N=C(N)SCc1nc(-c2ccc(Cl)cc2)no1`, the TGI in experiment [1] was more than 100 µM; in experiment [2], 50.6 µM; in experiment [4], more than 100 µM; in experiment [5] it was 26.2 µM; in experiment [10] it was 27.8 µM; in [6], 21.9 µM. The figures for the TGI in experiment [7] and in experiment [8] were 29.9 µM and 78.8 µM, respectively.
